For 27 molecules, TGI, GI50 and outcome results are on record in PubChem BioAssay (NCI).

Several values for one entry are separate records, joined by “and”; a condition that tells them apart may be missing. Equal values may be shown once.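 Following 48 hours of exposure in 96-well plates, responses at five concentrations were used to interpolate endpoints linearly. The concentration for 50% growth inhibition is given as GI50. TGI marks complete inhibition of growth.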 Activity calls are given as the source filed them. Rule as the data show it: active = GI50 below about 0.43 µM; inactive = the rest.

Common to all, as to experiment: NCI-60 cell line screen, 48 h
For test [1], the system named is HCT-116 colon.
The subject of test [2] is HL-60(TB) leukemia.
Test [3] has as its system HOP-18 NSCLC.
The subject of test [4] is M19-MEL melanoma.
Test [5] deals with OVCAR-5 ovarian.
Test [6] deals with SR leukemia.
Test [7] has as its system MCF7 breast.
Test [8] deals with PC-3 prostate.
In test [9] the test system is T-47D breast.

Consider `C=CC1(C(=O)O)CCC(C(C)(C)C)CC1` (stereo not given), for which the TGI in test [1], in test [2], in test [3], in [4], in [5] and in test [6] was above 100 µM in each case.
With `CCOC(=O)Nc1nc2ccc(Cn3cccc3)cc2[nH]1`, the TGI in test [1] is above 100 µM; in [2], 13.4 µM; in test [3] it was above 100 µM; in [4], above 100 µM; in [7], above 100 µM; in test [5], above 100 µM. For the same molecule, the results for the TGI in [8], in test [6] and in test [9] were above 38.2 µM, above 36.2 µM and above 100 µM, respectively.
Take `CC[C@@H]1OC2(C)CC(S(=O)(=O)c3ccccc3O)CC1O2` (stereo not given in full): the TGI in test [1], in test [2], in test [3], in test [4], in test [5] and in test [6] was above 100 µM each time.
`CCOC(=O)C(N)C[S][Sn]([CH3])([CH3])[Cl]` (stereo not given): the GI50 was above 100 µM in test [1]; above 51.4 µM in test [2]; above 100 µM in test [3]; above 89.1 µM in test [4]; above 100 µM in test [5]. Besides, the TGI is above 100 µM in test [1]; above 77.4 µM in test [2]; above 100 µM in [3]; above 100 µM in test [4]; above 100 µM in test [5].
Consider `CC(=O)c1cccc(N2COC(C)(C)c3nc4ccccc4n3C2)c1`, for which the TGI in test [1], in test [2], in test [3], in test [4] and in test [6] was above 100 µM throughout.
Consider `Cc1c[nH]c2c(O)cc3c(c12)[C@H](CCl)CN3C(=O)c1cc2cc(NC(=O)Nc3ccc4[nH]c(C(=O)N5C[C@@H](CCl)c6c5cc(O)c5[nH]cc(C)c65)cc4c3)ccc2[nH]1`, for which the GI50 was 0.0031 µM in [1]; 1.14 ng/mL in [4]; 0.023 µM in test [8]; 0.000244 µM in test [6]; 0.00671 µM in [9]. The result in test [3] was inactive. Moreover, the TGI in [4] was 3.44 ng/mL; in test [7] it was 21.9 µM and 0.00887 µg/mL and 8.88 µg/mL; in [9], 0.0911 µM and 0.0461 µM.
Consider `COc1ccc(-c2onc(-c3ccc([N+](=O)[O-])cc3)c2C2=NCCN2)cc1`, for which the TGI in test [1], in test [2], in test [3], in test [4], in test [5] and in test [6] was above 100 µM in each case.
On to `CC/C(C)=C1\CCC(CN2CCOCC2)C1=O` (stereo not given), for which the TGI in test [1] stood at 26.8 µM; in [2], 44 µM; in test [3] it was 34.1 µM; in test [4], 30 µM; in test [5], 31.3 µM; in test [6] it was 49.8 µM.
`COc1ccccc1N1C(=O)/C(=C/c2ccc(N(CCC#N)CCC#N)cc2C)N=C1c1cc([N+](=O)[O-])ccc1Cl`: the TGI in test [1] was above 100 µM; in test [2], above 100 µM; in [3], above 100 µM; in test [4] it was 56.3 µM; in [5], above 100 µM; in test [6] it was above 100 µM.
In the case of `O=[N+]([O-])c1cccc(C2N3CCCCC3[C@@H]3c4[nH]c5ccccc5c4CCN23)c1` (stereo not given in full), the TGI in test [2] is 29 µM; in test [3], above 100 µM; in test [4] it was 25 µM; in [5], 32.7 µM.
Turning to `COc1cc(Cl)c2c3c(c(C(C)=O)oc13)CCC2`, the TGI in test [1], in [2], in test [3] and in [4] was above 100 µM throughout.
As for `CC(=O)OCC1OC(N2C(=O)C(=O)c3cc(C)ccc32)C(OC(C)=O)C(OC(C)=O)C1OC(C)=O` (stereo not given), the TGI in test [1] is above 100 µM; in [2], 59.5 µM; in test [3] it was above 100 µM; in test [4], above 100 µM; in test [5] it was above 100 µM; in test [6], 41.4 µM.
Regarding `CC1=C(C(=O)Nc2ccccc2C)C(c2ccc(Cl)c(Cl)c2)C(C(=O)Nc2ccccc2C)=C(C)N1`, the TGI in test [1] was found to be 45.2 µM; in test [2], 45.4 µM; in test [3] it was 69.4 µM; in test [4] it was 45.2 µM; in test [5], 53.5 µM; in test [6], 36.8 µM.
Regarding `CCN(CC)CCCC(C)Nc1c2ccc(Cl)cc2nc2ccc(OC)cc12` (stereo not given), the GI50 in test [1] is 1.38 µM; in test [2], 1.81 µM; in test [7], 2.33 µM; in [5] it was 2.34 µM; in [8], 2.24 µM; in test [6], 1.86 µM. Also, the GI50 in test [9] is 2.59 µM. Besides, the TGI in [1] is 5.79 µM and 4.31 µM; in test [2], 9.64 µM and 10.7 µM; in test [4] it was 3.14 µM; in test [7], 8.04 µM and 10.7 µM; in [5], 6.45 µM and 4.75 µM; in test [8], 9.19 µM and 5.73 µM. In addition, the TGI was 6 µM and 5.02 µM in test [6]; 7.01 µM and 5.68 µM in test [9].
With `O=C(Nc1cc(Cl)c(Cl)cc1Cl)C(=O)C1C=CCS1(=O)=O` (stereo not given), the TGI in [1], in [2], in [3], in [4], in test [5] and in test [6] was above 100 µM throughout.
In the case of `c1ccc2c(c1)CCC/C2=N\OCC1CO1` (stereo not given), the TGI is above 100 µM in test [1]; 92.1 µM in [2]; above 100 µM in [3]; above 100 µM in [4]; above 100 µM in [5].
Regarding `O=C1OC(CC(=O)c2ccc(Cl)c(Cl)c2)C(Cl)=C1Cl` (stereo not given), the TGI in [2], in test [3], in [4] and in test [5] was above 100 µM in each case.
For the molecule `COC(=O)C1C(C(=O)OC)C2(OC)c3ccccc3-c3ccccc3C12` (stereo not given), the TGI in test [1] is above 100 µM; in test [2], 25.3 µM; in test [3] it was above 100 µM; in test [4], above 100 µM; in test [5], above 100 µM; in [6], 42 µM.
For the molecule `CCCCOC(=O)NC(=O)c1cn(CCCOC(=O)CCCCCCCCC(=O)OCCCn2cc(C(=O)NC(=O)OCCCC)c(=O)[nH]c2=O)c(=O)[nH]c1=O`, the TGI in test [1], in test [2], in test [3], in [4], in [5] and in test [6] was above 100 µM throughout.
As to `CCN(CC)CC(O)CNc1ccc(NCC2CO2)c2c1C(=O)c1ccccc1C2=O` (stereo not given), the GI50 is 0.0866 µM in test [1]; 0.00216 µM in test [2]; 0.0284 µM in [7]; 0.395 µM in [8]; 0.0346 µM in [6]. Besides, the TGI was 1.11 µM in test [1]; 37 µM in test [3]; 0.577 µM in test [4]; 0.169 µM in test [7]; 7.76 µM in test [5]; 3.06 µM in test [8].
For `COc1ccc(NC(=O)C(=O)C(C(=O)c2ccccc2)C2OC(=O)c3ccccc32)c([N+](=O)[O-])c1` (stereo not given), the TGI in test [1], in test [2], in test [3], in test [4], in test [5] and in test [6] was above 100 µM throughout.
With `CCNC(=O)CCN(C(=O)O)S(=O)(=O)c1ccc(NC(=O)c2ccccc2)cc1`, the TGI in test [1], in test [2], in [3], in test [4], in test [5] and in test [6] was above 100 µM in each case.
Take `CC(C)CS(=O)(=O)/C(=C(\c1ccc(Br)cc1)S(=O)(=O)CC(C)C)c1ccc(Br)cc1`: the TGI in test [1], in test [3], in test [4], in test [5] and in test [6] was above 100 µM in each case.
As for `CCCCCCCCC[C@@H]1CC(=O)OCC2OC(O[C@H](CCCCCCCCC)CC(=O)OCC3OC(O[C@H](CCCCCCCCC)CC(=O)OCC4OC(O1)C(O)C(O)C4O)C(O)C(O)C3O)C(O)C(O)C2O` (stereo not given in full), the TGI in [1] was found to be 21.9 µM; in [2], 31.8 µM; in [3], 0.0797 µM; in test [4], 16.5 µM; in test [5], 22.5 µM; in [6], 20.6 µM.
In the case of `CCCCc1c2c(nc3c1CCC/C3=C\c1ccccc1)C(=O)CCC2`, the TGI in test [1] worked out at 39.5 µM; in test [2] it was 74.3 µM; in test [3], 79 µM; in test [4] it was 34.4 µM; in test [5], 43.1 µM; in test [6] it was 36.6 µM.
In the case of `CC(=O)Nc1ccc(C(=O)NN2C(=O)C(Cl)C2c2ccc(Cl)cc2)cc1` (stereo not given), the TGI in [1], in test [2], in test [3], in test [4], in [7] and in test [5] was above 100 µM throughout. Besides, the TGI in test [8], in test [6] and in test [9] was above 100 µM in each case.
Take `O=S(=O)(N/N=C/c1ccc(/C=N/NS(=O)(=O)c2ccccc2)cc1)c1ccccc1`: the TGI in test [1] was above 100 µM; in [2], 53.3 µM; in test [3] it was above 100 µM; in test [4], above 100 µM; in [5], 51 µM; in test [6], above 100 µM.
